According to ChEMBL document CHEMBL1201862, “PubChem BioAssay data set” (2004):
One block for each compound: values may come before it. Calls of active or inactive are those of the source.

Legend:
cells [1] = assay type: functional, cell-based
cells [2] = assay type: functional, cell-based; remark: listed apart in the source
[3] = cytotoxicity in HEK-293T cells, dose response, cytotoxicity control for BCR NF-kB inhibitor project, luminescence, B-cell screen hits (AID 489021); assay type: functional, cell-based;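 further: HEK-293T cells carrying an NF-kB luciferase reporter; cells exposed to compound for about 14 hours before viability readout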
[4] = target: T1, Short transient receptor potential channel 4 (Mus musculus, UniProt Q9QUQ5); experiment: mouse TRPC4 channel inhibitors, dose response, cell-based, HEK293 TRPC4/mu-opioid, Fluo-4 calcium (AID 434942); assay type: functional;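 further: potency of inhibitors blocking the TRPC4 calcium response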
T1 sequence (Q9QUQ5 whole entry): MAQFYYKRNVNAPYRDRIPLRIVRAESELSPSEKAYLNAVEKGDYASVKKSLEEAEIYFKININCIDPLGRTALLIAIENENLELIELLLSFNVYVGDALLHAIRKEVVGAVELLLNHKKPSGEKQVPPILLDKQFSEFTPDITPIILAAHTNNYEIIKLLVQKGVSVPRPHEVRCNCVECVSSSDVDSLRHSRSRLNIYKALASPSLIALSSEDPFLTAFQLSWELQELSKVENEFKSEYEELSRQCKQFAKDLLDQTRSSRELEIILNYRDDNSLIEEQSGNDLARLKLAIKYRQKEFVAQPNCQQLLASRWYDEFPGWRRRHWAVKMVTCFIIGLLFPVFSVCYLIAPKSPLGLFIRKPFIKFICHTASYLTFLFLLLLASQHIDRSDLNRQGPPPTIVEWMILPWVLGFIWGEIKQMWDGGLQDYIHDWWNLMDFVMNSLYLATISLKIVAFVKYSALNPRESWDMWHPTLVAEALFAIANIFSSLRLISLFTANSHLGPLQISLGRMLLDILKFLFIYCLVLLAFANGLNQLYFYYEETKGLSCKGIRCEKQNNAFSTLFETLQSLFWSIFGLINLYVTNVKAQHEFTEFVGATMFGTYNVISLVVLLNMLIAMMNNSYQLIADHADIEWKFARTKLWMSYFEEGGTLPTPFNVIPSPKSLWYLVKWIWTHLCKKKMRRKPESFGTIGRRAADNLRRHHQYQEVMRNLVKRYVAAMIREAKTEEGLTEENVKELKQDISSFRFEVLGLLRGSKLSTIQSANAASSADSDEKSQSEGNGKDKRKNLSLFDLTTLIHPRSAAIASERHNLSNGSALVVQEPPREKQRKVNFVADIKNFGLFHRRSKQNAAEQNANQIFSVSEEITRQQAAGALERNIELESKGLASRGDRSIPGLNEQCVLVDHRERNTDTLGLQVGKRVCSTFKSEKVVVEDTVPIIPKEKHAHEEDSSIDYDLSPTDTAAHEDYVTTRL

Protein Wnt-3a = Protein Wnt-3a (Mus musculus, UniProt P27467); experiment: Wnt3a-driven reporter signaling inhibition, dose response, selectivity assay for Gli-SUFU antagonist project, Wnt-LIGHT cells, luminescence (AID 651570); assay type: functional; details: read-out: IC50_Mean;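 further: Wnt-LIGHT reporter cells stimulated with conditioned medium from Wnt3a-producing cells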
Chain of Protein Wnt-3a (P27467 whole entry): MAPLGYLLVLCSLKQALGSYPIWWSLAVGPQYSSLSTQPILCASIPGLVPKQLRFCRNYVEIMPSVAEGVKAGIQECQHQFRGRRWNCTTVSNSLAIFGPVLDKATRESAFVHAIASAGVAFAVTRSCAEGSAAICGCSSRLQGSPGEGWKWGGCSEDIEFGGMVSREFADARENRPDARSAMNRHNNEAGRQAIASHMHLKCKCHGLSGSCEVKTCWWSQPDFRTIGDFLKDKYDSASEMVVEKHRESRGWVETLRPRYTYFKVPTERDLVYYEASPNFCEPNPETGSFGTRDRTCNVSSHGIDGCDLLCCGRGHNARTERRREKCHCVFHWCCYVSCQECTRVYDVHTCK

[5] = cytotoxicity toward DRD oncogenic fibroblasts, dose response, cell-based, non-viral oncogenic, luminescence (AID 1934); assay type: functional; details: Homo sapiens
[6] = inhibitors of intracellular T. cruzi replication, confirmation, NIH3T3 host cells, beta-gal luminescence (AID 2044); assay type: functional, cell-based;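 further: intracellular parasites grown in NIH/3T3 mouse fibroblasts as host cells; luminescent beta-galactosidase reporter signal from transgenic T. cruzi replicating inside host cells; inhibitors lower the luminescence signal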
BJ [7] = experiment: cells; assay type: functional, cell-based; details: Homo sapiens
INS1 = experiment: beta cell apoptosis inhibitors, cytokine rescue, dose response, luminescence, retest (AID 449756); assay type: functional, cell-based; details: Rattus norvegicus;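 further: cell death triggered by IL-1 beta plus TNF-alpha plus IFN-gamma mixture; protective hits raise ATP signal compared with cytokine alone wells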
[8] = cytotoxicity toward NIH3T3 fibroblasts, dose response, counter-screen, cell-based, ATP luminescence, mouse fibroblasts (AID 2010); assay type: functional;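 further: cells exposed to compound for about 90 hours before reading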
BJ [9] = experiment: cytotoxicity toward BJ-TERT-LT-ST fibroblasts, dose response, cell-based, RAS-independent, luminescence (AID 1935); assay type: functional; details: Homo sapiens;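 further: BJ fibroblasts immortalized with TERT plus LT and ST oncogenes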
BJ [10] = experiment: cytotoxicity toward BJ-TERT fibroblasts, dose response, cell-based, RAS-independent, luminescence (AID 1933); assay type: functional; details: Homo sapiens
[11] = target: T2, Histone-lysine N-methyltransferase NSD2 (Homo sapiens, UniProt O96028); assay type: biochemical
T2 sequence (O96028 whole entry): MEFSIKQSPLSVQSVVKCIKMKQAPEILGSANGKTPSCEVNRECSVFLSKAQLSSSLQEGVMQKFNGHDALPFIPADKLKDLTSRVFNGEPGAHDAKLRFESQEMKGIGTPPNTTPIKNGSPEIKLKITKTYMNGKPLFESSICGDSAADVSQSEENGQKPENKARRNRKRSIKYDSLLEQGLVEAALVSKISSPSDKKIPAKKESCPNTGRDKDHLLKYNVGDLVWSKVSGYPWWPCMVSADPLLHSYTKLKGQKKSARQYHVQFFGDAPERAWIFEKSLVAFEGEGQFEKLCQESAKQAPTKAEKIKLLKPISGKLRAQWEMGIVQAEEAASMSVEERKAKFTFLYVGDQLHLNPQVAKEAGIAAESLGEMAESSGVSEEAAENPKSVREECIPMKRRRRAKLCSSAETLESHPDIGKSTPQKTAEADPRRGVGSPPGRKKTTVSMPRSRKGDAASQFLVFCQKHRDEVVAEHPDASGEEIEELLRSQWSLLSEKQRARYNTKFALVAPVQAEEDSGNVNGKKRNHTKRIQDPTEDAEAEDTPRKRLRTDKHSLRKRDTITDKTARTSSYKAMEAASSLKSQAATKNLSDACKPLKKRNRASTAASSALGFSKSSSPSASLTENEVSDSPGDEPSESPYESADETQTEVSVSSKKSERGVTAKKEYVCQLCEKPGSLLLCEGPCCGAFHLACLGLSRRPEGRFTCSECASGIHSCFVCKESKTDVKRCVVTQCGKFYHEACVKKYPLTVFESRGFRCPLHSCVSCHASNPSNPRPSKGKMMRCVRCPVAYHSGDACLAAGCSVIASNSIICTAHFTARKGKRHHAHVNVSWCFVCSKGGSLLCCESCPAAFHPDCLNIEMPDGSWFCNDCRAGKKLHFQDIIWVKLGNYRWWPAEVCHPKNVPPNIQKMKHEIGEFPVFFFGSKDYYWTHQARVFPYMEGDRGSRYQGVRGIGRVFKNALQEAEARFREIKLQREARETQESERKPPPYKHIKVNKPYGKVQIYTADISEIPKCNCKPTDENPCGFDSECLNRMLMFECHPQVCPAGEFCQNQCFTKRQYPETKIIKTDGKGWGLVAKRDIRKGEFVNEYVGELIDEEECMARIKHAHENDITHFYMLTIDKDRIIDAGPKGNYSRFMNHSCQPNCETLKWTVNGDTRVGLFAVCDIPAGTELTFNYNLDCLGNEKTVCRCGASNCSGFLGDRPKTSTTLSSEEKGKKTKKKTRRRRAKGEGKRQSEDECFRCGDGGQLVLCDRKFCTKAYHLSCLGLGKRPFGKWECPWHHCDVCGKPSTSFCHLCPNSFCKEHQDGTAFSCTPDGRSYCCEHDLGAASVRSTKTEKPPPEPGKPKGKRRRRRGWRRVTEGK

[12] = target: T3, Corticotropin-releasing factor receptor 2/Corticotropin-releasing factor-binding protein (Homo sapiens, UniProt P24387+Q13324); experiment: activators of CRF receptor 2 with binding protein – uHTS hits, confirmation (AID 602473); assay type: functional; details: read-out: EC50_Mean
T3 sequence (Q13324 whole entry): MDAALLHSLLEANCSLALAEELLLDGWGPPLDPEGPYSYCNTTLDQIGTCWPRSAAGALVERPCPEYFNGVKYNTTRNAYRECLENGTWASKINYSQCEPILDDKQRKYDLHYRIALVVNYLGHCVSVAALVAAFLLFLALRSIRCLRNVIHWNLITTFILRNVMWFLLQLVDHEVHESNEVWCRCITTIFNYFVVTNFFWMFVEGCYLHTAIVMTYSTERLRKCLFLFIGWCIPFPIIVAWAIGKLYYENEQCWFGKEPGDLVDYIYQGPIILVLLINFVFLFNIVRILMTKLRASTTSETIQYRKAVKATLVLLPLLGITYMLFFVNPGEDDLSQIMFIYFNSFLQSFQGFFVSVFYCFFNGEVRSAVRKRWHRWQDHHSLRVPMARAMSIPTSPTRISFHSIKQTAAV
T3 sequence (P24387 whole entry): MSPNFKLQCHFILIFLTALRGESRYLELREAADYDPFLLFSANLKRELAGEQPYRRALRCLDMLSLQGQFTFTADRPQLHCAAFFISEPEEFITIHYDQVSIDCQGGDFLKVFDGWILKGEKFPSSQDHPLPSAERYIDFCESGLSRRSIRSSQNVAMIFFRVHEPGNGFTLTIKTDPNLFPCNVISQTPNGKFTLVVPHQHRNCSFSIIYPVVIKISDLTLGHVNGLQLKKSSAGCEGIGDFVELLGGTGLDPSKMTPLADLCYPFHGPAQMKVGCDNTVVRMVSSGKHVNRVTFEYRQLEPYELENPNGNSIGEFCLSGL

[13] = target: T3, Corticotropin-releasing factor receptor 2/Corticotropin-releasing factor-binding protein; experiment: Dose Response confirmation of uHTS hits for small molecule antagonists of the CRF-binding protein and CRF-R2 receptor complex.; assay type: functional; details: read-out: IC50_Mean
[14] = target: T4, Ubiquitin-conjugating enzyme E2 N (Homo sapiens, UniProt P61088); assay type: functional;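 further: Dose-response confirmation in a TR-FRET assay detecting UBC13-driven polyubiquitin chain formation, inhibition measured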
T4 sequence (P61088 whole entry): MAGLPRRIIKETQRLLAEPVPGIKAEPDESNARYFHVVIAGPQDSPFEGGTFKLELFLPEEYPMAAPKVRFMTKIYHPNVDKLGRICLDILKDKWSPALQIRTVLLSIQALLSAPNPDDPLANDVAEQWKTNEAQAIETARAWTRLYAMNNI

SMILES: CSc1nc(-c2ccc(Cl)cc2)nn1S(=O)(=O)c1ccccc1
IC50 (cells [1]): > 29.9 µM (inactive) | EC50 (cells [2]): > 29.9 µM (inactive)

SMILES: Cc1nn(-c2ccc(N3CCCCC3)nn2)c(C)c1CCC(=O)Nc1ccccc1F
IC50 [3]: > 80 µM (inactive)

EC50 [4]: 5.31 µM (active)
SMILES: Cc1cc(Nc2cccc(O)c2)c2ccccc2n1

IC50 (Protein Wnt-3a): 6.98 µM (active)
SMILES: O=C(Nc1cccc(C(F)(F)F)c1)C1CCN(S(=O)(=O)c2ccc(N3CCCC3=O)cc2)CC1

SMILES: COc1ccc(-c2noc(N3CCC(C(=O)Nc4ccc(F)cc4F)CC3)n2)cc1
IC50 [3]: > 80 µM (inactive)

EC50 [4]: 6.68 µM (active)
SMILES: Cc1nn(-c2ccccc2)c2nc(C(F)(F)F)cc(O)c12

SMILES: N=c1c2c(n(Cc3ccc(Cl)c(Cl)c3)c3c1CCC3)CCCC2
EC50 [5]: 28.9 µM (inconclusive) | EC50 [6]: 152 nM (active) | EC50 (BJ [7]): 14.1 µM (inconclusive) | AC50 (INS1): 2.78 µM (active) | EC50 [8]: > 60 µM (not active) | IC50 [3]: > 80 µM (inactive) | EC50 (BJ [9]): > 150 µM (not active) | EC50 (BJ [10]): 11.9 µM (active)

AC50 [11]: 11.8 µM (active) | EC50 [12]: > 53 µM (inactive) | IC50 [13]: > 47.1 µM (inactive)
SMILES: N#Cc1c(Cl)nc2c(c1C#N)CCCC2

SMILES: O=C(O)C1C2C=CC(C2)C1C(=O)NCCc1cccc(Cl)c1 (configuration not stated)
IC50 (cells [1]): > 29.9 µM (inactive) | EC50 [12]: > 53 µM (inactive) | EC50 (cells [2]): > 29.9 µM (inactive) | IC50 [13]: > 47.1 µM (inactive)

AC50 [11]: 16 µM (active)
SMILES: Cc1ccc(-c2cc(C(F)(F)F)n3nc(C(=O)N4CCN5CCCC5C4)cc3n2)cc1 (configuration not stated)

IC50 [14]: > 20 µM (inactive) | IC50 (Protein Wnt-3a): 14.8 µM (active)
SMILES: Cc1ccsc1CNc1ncnc2ccc(-c3c(C)noc3C)cc12

IC50 [14]: > 20 µM (inactive)
SMILES: Cc1ccccc1C(=O)NCC(=O)NNC(=S)NC(=O)c1ccccc1C

EC50 [4]: 2.37 µM (active)
SMILES: CCN(CC)C(=O)C1CCCN(Cc2cccc(Oc3ccccc3)c2)C1 (configuration not stated)
